Experimental data: patent US20100069340A1, “PHARMACEUTICAL COMPOSITIONS OF AN SRC KINASE INHIBITOR AND AN AROMATASE INHIBITOR” (Wyeth, priority 2008, published 2010)
Where two headings read alike, the source gives them in different places.

Tests used:
Format in all cases: cell-based
ER = ER signaling in MCF-7 cells (ERE-tk-luciferase, ERα levels)
Description: Radis Procedure 2484, MCF-7 model was used for the measurement of in vitro estrogenic activity. MCF-7 cells were passaged twice a week in D-MEM/F-12 medium containing 10% (v/v) heat-inactivated fetal bovine serum, 1% (v/v) Penicillin-Streptomycin, and 2 mM glutaMax-1. The cells were plated with growth medium at 25,000/well into 96 well plates and incubated at 37° C. overnight.
The cells were infected for 2 hr at 37° C. with 50 μl/well of a 1:10 dilution of adenovirus 5-ERE-tk-luciferase in phenol red-free D-MEM/F-12 medium containing 10% (v/v) heat-inactived charcoal-stripped fetal bovine serum, 1% (v/v) Penicillin-Streptomycin, 2 mM glutaMax-1, 1 mM sodium pyruvate. The wells are then washed once with 150 μl of experimental medium. Finally, the cells are treated for 24 hr at 37° C. in replicates of 8 wells/treatment with 150 μl/well of vehicle (<0.1% v/v DMSO) or compound that is diluted >1000-fold into experimental medium. SKI-606 was tested in a dose response assay in the presence of 0.1 nM 17β-estradiol to stimulate ERE-luc.
After treatment, the cells are lysed on a shaker for 15 min with 25 μl/well of 1× cell culture lysis reagent (Promega Corporation). The cell lysates (20 μl) were transferred to a 96 well luminometer plate, and luciferase activity were measured in a MicroLumat LB 96 P luminometer (EG & G Berthold) using 100 μl/well of luciferase substrate (Promega Corporation). […]

MDA-MB-468 (ER neg) = assay: Cell proliferation assay, MDA-MB-468; details: Homo sapiens, MDA-MB-468, 72 h; 3 Day assay, complete medium (10% FCS)
Description: (§1) Cell lines were obtained from ATCC. Estrogen was obtained from SIGMA, 4-hydroxytamoxifen was obtained from SIGMA, Bosutinib was used for these studies. Charcoal-stripped serum and phenol red-free medium was obtained from Invitrogen. CellTiter Glo was obtained from Promega.
Cell cultures. Proliferation assays with cells in complete fetal calf serum were performed with medium containing phenol red. For all assays examining estrogen-dependence, cells were cultured in phenol red-free medium; DMEM/F12 (MCF7), RPMI1640 (MDA-MB-361, T47D) MEM (BT20, MDA-MB-231) McCoys5A modified (SKBR3), Leibowitz' L15 medium supplemented with 10 ng/mL insulin (MDA-MB-435 and MDA-MB-468) with 10% fetal bovine serum supplemented with glutamine and gentamicin. For proliferation assays, trypsinized cells were subjected to three cycles of centrifugation and resuspension in phenol red-free medium supplemented with charcoal stripped medium (5% final), glutamine and Pen/Strep. Cells were plated on day 0, with or without estrogen (10 nM final concentration). On day 1, 4-hydroxytamoxifen and SKI-606 or DMSO were added as a serial dilution. […] After mixing and two hours incubation on the bench, plates were read on an Envision reader. […] The 10 uM data point was dropped for these two lines since there was a clear plateau prior to the sharp drop in luminescence observed at 10 uM compound. […]

SKBR3 (ER neg) = assay: Cell proliferation assay (CellTiter Glo), SKBR3; details: Homo sapiens
Description: as §1
(§2) Cell cultures. Proliferation assays with cells in complete fetal calf serum were performed with medium containing phenol red. For all assays examining estrogen-dependence, cells were cultured in phenol red-free medium; DMEM/F12 (MCF7), RPMI1640 (MDA-MB-361, T47D) MEM (BT20, MDA-MB-231) McCoys5A modified (SKBR3), Leibowitz' L15 medium supplemented with 10 ng/mL insulin (MDA-MB-435 and MDA-MB-468) with 10% fetal bovine serum supplemented with glutamine and gentamicin. For proliferation assays, trypsinized cells were subjected to three cycles of centrifugation and resuspension in phenol red-free medium supplemented with charcoal stripped medium (5% final), glutamine and Pen/Strep. Cells were plated on day 0, with or without estrogen (10 nM final concentration). On day 1, 4-hydroxytamoxifen and SKI-606 or DMSO were added as a serial dilution. Cells were incubated for 7 days, after which CellTiter Glo (Promega) was added as recommended by the manufacturer. After mixing and two hours incubation on the bench, plates were read on an Envision reader. […] The IC50 was calculated using a floating minima corresponding to the lowest luminescence value at 5 uM.
Cell proliferation assays were performed in two formats; a three day proliferation assay in fully supplemented medium with phenol red, and a 7 day proliferation assay in phenol red free medium supplemented with charcoal-stripped medium.
The complete medium data were obtained in 3-day assays, while stripped serum assays were extended for 7 days with one change of medium at day 5.

MCF7 = assay: Cell proliferation assay (CellTiter Glo), MCF7; details: for IC50: Homo sapiens
Description: as §1
as §2, with “The 10 uM data point was dropped for these two lines since there was a clear plateau prior to the sharp drop in luminescence observed at 10 uM compound. The” for “The”
(§3) Cell proliferation assays were performed in two formats; a three day proliferation assay in fully supplemented medium with phenol red, and a 7 day proliferation assay in phenol red free medium supplemented with charcoal-stripped medium. […] ER positive T47D cells were slightly more sensitive to SKI-606 in the presence of estrogen. BT20 cells were equally sensitive to SKI-606 in stripped serum medium, regardless of whether estrogen was present.
Proliferation data for SKI-606 in various breast tumor lines in complete medium (10% FCS) and charcoal stripped serum with no phenol red (no E2, E2) with and without 10 nM estrogen. The complete medium data were obtained in 3-day assays, while stripped serum assays were extended for 7 days with one change of medium at day 5. The IC50 values for the BT20 line was calculated using the “plateau” cell number evident at 5 μM SKI-606.

BT-20 (ER neg) = assay: Cell proliferation assay (CellTiter Glo), BT-20; details: for IC50: Homo sapiens, BT-20, 168 h, 7 Day assay, charcoal stripped serum, no phenol red, plateau cell number at 5 μM used
Description: as §1
as §2, with “The 10 uM data point was dropped for these two lines since there was a clear plateau prior to the sharp drop in luminescence observed at 10 uM compound. The” for “The”
as §3, with “present. […]” for “present.”

Structure (SMILES): COc1cc(Nc2c(C#N)cnc3cc(OCCCN4CCN(C)CC4)c(OC)cc23)c(Cl)cc1Cl [bosutinib]
- genomic and non-genomic signaling by ER (ER): inhibits both genomic and non-genomic signaling by ER
- IC50 (MDA-MB-468 (ER neg)): 5 µM
- IC50 (SKBR3 (ER neg); SK-BR-3, 72 h, 3 Day assay, complete medium (10% FCS), read-out: IC50 (uM) 10% FCS): 1.5 µM
- IC50 (SKBR3 (ER neg); SK-BR-3, 168 h, 7 Day assay, charcoal stripped serum, no phenol red, 10 nM estrogen, read-out: IC50 (uM) E2): 1.38 µM
- IC50 (SKBR3 (ER neg); SK-BR-3, 168 h, 7 Day assay, charcoal stripped serum, no phenol red, without estrogen, read-out: IC50 (uM) no E2): 1.43 µM
- IC50 (MCF7; MCF7, 72 h, 3 Day assay, complete medium (10% FCS), read-out: IC50 (uM) 10% FCS): 6.5 µM
- IC50 (MCF7; MCF7, 168 h, 7 Day assay, charcoal stripped serum, no phenol red, 10 nM estrogen, read-out: IC50 (uM) E2): 0.86 µM
- IC50 (MCF7; MCF7, 168 h, 7 Day assay, charcoal stripped serum, no phenol red, without estrogen, cells did not grow well, data less reliable, read-out: IC50 (uM) no E2): 0.08 µM
- effect on estrogen-dependent and estrogen-independent growth (MCF7; MCF7): inhibited estrogen-dependent and estrogen-independent growth
- toxicity at maximal concentration (BT-20 (ER neg); 10 uM SKI-606, BT20 cells): some toxicity was seen
- IC50 (BT-20 (ER neg); 10 nM estrogen, read-out: IC50 (uM) E2): 0.24 µM
- IC50 (BT-20 (ER neg); without estrogen, read-out: IC50 (uM) no E2): 0.28 µM
